Patent US11111247B2, “Pyrazolopyrimidine compounds and uses thereof” (Incyte Corporation, priority 2018, dated 2021)
Read-outs that look alike come from different tables or passages of the source.

Key:
FGFR1 = FGFR1 (Homo sapiens, UniProt P11362); assay: pFGFR1 Functional Cell HTRF Assay (BAF3-TEL-FGFR1 cells); assay type: cell-based
Experimental: (§1) To measure phosphorylated Fibroblast Growth Factor Receptor 1 and 3 (FGF1 and FGFR3), in house stable cell lines BAF3-TEL-FGFR1 or BAF3-TEL-FGFR3 were maintained in RPMI with 10% FBS and 1 μg/ml puromycin (Gibco/Life Technologies). […] The plates were gently shaken (100 rpm) for 2 minutes at room temperature to mix well and incubated for 2 hours in a single layer at 37° C., 5% CO2. 4 μl/well of 1/25 dilution of lysis buffer #3 (Cis Bio) was added with standard Protease inhibitors and shaken at 200 rpm at room temperature for 20 minutes. 4 μl total of the Cis Bio Tb-pFGFR Ab (10 ng) and d2-FGFR3 (1 ng) together were added to the lysate and mixed well. Plates were sealed and incubated at room temperature overnight in the dark. […] IC50 determination was performed by fitting the curve of inhibitor percent inhibition versus the log of the inhibitor concentration using the GraphPad Prism 5.0 software.

RT112 cells = assay: Luminescent Viability Assay (LVA, FGFR3); assay type: cell-based; conditions: Homo sapiens, RT-112, 72 h, 3 days, CellTiter-Glo
Summary of the method: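 RT112 bladder cells grown in RPMI with 10% FBS were exposed to a compound concentration range for 3 days. Viability read by CellTiter-Glo luminescence; IC50 fitted from percent inhibition versus log concentration.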

FGFR2 (P) = FGFR2 (P) (Homo sapiens (Human), UniProt P21802); assay: FGFR Enzymatic Assay, FGFR2 phosphorylated; conditions: read-out: FGFR2 (P) IC50; phosphorylated enzyme, ATP near or below Km
Chain of FGFR2 (P) (P21802 22-821): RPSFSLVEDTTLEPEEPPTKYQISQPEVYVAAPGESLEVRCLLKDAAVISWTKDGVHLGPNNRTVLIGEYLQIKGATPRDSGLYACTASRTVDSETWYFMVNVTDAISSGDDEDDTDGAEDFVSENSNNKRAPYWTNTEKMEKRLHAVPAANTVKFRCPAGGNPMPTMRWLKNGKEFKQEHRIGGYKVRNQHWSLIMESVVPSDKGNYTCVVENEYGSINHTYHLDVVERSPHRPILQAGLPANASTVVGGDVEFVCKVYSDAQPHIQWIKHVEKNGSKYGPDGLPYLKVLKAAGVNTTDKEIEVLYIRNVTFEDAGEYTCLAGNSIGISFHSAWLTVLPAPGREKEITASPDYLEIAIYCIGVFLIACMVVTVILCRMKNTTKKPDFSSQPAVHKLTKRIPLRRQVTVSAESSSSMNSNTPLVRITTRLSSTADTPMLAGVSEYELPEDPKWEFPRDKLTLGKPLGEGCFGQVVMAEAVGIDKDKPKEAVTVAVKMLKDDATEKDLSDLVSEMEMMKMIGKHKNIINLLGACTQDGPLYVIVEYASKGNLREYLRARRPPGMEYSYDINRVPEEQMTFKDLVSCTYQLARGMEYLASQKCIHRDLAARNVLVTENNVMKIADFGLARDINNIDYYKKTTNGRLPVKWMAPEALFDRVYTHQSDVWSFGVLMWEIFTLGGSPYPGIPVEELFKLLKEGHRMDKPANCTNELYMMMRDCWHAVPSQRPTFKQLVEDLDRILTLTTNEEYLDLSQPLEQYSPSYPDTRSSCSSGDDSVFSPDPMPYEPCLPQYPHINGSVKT

FGFR3 = FGFR3 (Homo sapiens, UniProt P22607); assay: pFGFR3 Functional Cell HTRF Assay (BAF3-TEL-FGFR3 cells); assay type: cell-based; conditions: 2 hours
Chain of FGFR3 (P22607 23-806 limits assumed): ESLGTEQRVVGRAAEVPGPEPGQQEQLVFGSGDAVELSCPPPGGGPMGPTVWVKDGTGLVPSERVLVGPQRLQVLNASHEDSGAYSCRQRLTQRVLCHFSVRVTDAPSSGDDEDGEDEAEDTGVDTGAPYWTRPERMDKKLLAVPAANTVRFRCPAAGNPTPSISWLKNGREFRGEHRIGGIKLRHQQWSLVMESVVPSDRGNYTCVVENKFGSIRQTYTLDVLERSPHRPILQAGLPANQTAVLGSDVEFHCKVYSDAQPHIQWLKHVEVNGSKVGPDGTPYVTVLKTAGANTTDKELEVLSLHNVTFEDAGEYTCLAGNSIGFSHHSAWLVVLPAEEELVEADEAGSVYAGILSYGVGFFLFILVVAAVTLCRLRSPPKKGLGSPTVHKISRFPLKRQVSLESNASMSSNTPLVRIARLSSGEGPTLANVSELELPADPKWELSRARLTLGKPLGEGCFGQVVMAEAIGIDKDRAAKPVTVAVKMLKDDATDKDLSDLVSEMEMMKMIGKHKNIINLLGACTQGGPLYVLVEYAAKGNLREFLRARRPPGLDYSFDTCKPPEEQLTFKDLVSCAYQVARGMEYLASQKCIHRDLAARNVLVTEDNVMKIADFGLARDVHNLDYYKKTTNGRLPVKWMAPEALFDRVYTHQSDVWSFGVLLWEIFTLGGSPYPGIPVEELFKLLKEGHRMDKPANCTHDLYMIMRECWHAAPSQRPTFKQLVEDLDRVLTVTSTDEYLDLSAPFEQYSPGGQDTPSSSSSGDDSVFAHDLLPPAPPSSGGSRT
Experimental: as §1

FGFR1 (UP) = FGFR1 (UP) (Homo sapiens (Human), UniProt P11362); assay: FGFR Enzymatic Assay, FGFR1 un-phosphorylated
Chain of FGFR1 (UP) (P11362 22-822): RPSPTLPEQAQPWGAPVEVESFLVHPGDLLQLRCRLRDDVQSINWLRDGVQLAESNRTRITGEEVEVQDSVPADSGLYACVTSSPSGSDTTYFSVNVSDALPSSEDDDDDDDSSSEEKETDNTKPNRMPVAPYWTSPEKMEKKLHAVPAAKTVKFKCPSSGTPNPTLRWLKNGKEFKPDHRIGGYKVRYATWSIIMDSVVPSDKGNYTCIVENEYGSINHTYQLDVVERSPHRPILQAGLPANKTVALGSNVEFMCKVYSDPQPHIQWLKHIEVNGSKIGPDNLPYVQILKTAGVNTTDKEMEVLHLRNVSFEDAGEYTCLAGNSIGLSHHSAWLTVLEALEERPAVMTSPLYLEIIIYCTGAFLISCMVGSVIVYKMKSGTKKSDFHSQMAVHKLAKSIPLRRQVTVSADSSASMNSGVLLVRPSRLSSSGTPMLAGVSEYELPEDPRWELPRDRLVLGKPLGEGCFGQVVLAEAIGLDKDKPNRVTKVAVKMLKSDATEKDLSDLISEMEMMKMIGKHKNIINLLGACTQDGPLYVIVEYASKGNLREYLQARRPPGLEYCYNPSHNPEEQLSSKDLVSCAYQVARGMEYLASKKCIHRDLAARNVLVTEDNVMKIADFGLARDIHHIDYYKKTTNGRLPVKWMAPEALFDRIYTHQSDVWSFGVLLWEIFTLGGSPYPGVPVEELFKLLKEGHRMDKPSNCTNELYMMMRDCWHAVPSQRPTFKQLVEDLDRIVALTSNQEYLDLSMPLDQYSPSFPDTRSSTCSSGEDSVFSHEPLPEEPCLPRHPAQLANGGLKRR

FGFR2 (UP) = FGFR2 (UP) (Homo sapiens (Human), UniProt P21802); assay: FGFR Enzymatic Assay, FGFR2 un-phosphorylated; conditions: read-out: FGFR2 (UP) IC50; un-phosphorylated enzyme, ATP near or below Km
Chain of FGFR2 (UP) (P21802 22-821): as the sequence (P21802 22-821) above
Experimental: (§2) The inhibitor potency of the exemplified compounds was determined in an enzyme discontinuous assay that measures peptide phosphorylation using FRET measurements to detect product formation. Inhibitors were serially diluted in DMSO and a volume of 0.2 μL was transferred to the wells of a 384-well plate. For the isoforms of FGFR (−1, −2, −3 wild-type and mutant isoforms, −4) including phosphorylated (P) and un-phosphorylated (UP) proteins, a 5 μL/well volume of enzyme diluted in assay buffer (50 mM HEPES, 10 mM MgCl2, 1 mM EGTA, 0.01% Tween-20, 5 mM DTT, pH 7.5) was added to the plate and pre-incubated with inhibitor for 5 to 15 minutes at ambient temperature. Appropriate controls (enzyme blank and enzyme with no inhibitor) were included on the plate. The reaction was initiated by the addition of a 5 μL/well volume containing both biotinylated [sequence] […] The plate was allowed to equilibrate for −10 minutes at ambient temperature before scanning on a PheraStar plate reader (BMG Labtech) instrument.
(§3) Either GraphPad prism or XLfit was used to analyze the data. The IC50 values were derived by fitting the data to a four parameter logistic equation producing a sigmoidal dose-response curve with a variable Hill coefficient. Prism equation: Y=Bottom+(Top−Bottom)/(1+10^((LogIC50−X)*Hill slope)); XLfit equation: Y=(A+((B−A)/(1+((X/C)^D)))) where X is the logarithm of inhibitor concentration and Y is the response.

ALK2 (aa 147-end) = ALK2 (aa 147-end) (Homo sapiens (Human), UniProt Q04771); assay: ALK2 HTRF Assay; assay type: biochemical
Chain of ALK2 (aa 147-end) (Q04771 147-509): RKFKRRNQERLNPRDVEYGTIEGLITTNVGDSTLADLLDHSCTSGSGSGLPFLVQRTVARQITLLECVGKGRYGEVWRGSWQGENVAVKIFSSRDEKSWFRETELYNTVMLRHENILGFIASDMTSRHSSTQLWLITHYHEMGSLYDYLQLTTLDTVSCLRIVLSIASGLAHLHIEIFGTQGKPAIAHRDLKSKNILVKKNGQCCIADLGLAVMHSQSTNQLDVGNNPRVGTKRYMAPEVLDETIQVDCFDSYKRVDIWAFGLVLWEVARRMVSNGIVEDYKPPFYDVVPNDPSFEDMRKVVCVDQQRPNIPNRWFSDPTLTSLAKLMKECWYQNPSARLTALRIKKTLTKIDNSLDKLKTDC

FGFR3 (UP) = FGFR3 (UP) (Homo sapiens (Human), UniProt P22607); assay: FGFR Enzymatic Assay, FGFR3 un-phosphorylated; conditions: read-out: FGFR3 (UP) IC50; un-phosphorylated enzyme, ATP near or below Km
Chain of FGFR3 (UP) (P22607 23-806): as the sequence (P22607 23-806 limits assumed) above
Experimental: as §2, §3

FGFR2 = FGFR2 (Homo sapiens, UniProt P21802); assay: pFGFR2 Functional Cell HTRF Assay (KATOIII cells); assay type: cell-based; conditions: 1 hour, read-out: FGFR2 HTRF IC50
Chain of FGFR2 (P21802 22-821 limits assumed): as the sequence (P21802 22-821) above
Experimental: To measure phosphorylated Fibroblast Growth Factor Receptor 2 (FGFR2), KATOIII cells (Human Gastric Carcinoma) were purchased from ATCC and maintained in Iscove's with 20% FBS (Gibco/Life Technologies). For the pFGFR2 assay, KATOIII cells were plated overnight in 5% FBS and Iscove's medium at 5×10^4 cells/well into Corning 96-well flat-bottom tissue culture treated plates. The next morning, 50 μl of fresh media with 0.5% FBS was incubated in the presence or absence of a concentration range of test compounds also at 50 μl, for 1 hour at 37° C., 5% CO2. Cell were washed with PBS, and lysed with Cell Signaling Lysis Buffer with standard Protease inhibitors for 45 min at room temperature. 4 μl total of Cis Bio Anti […] together were added to the lysate and mixed well (following directions of the kit). 16 μl was then transferred to 384 well Greiner white plates and stored at 4° C. overnight in the dark. Plates were read on the Pherastar plate reader at 665 nm and 620 nm wavelengths. IC50 determination was performed by fitting the curve of inhibitor percent inhibition versus the log of the inhibitor concentration using the GraphPad Prism 5.0 software. […] NT=Not tested.

ALK2 mutant DIPG cell = conditions: ALK2 mutant DIPG cells; cited from earlier work
[1] = BAF3-TEL-FGFR1 cells, 2 hours, read-out: FGFR1 HTRF IC50
[2] = read-out: FGFR1 (UP) IC50, un-phosphorylated enzyme, ATP near or below Km

Chain of FGFR1 (P11362 22-822 limits assumed): as the sequence (P11362 22-822) above

SMILES	IC50 (FGFR1; [1]) [nM]	IC50 (RT112 cells) [nM]	IC50 (FGFR2 (P)) [nM]	IC50 (FGFR3) [nM]	IC50 (FGFR1 (UP); [2]) [nM]	IC50 (FGFR2 (UP)) [nM]	IC50 (ALK2 (aa 147-end); ALK2 3 μM IC50, 3 uM ATP) [nM]	IC50 (ALK2 (aa 147-end); ALK2 100 μM IC50, 100 uM ATP) [nM]	IC50 (FGFR3 (UP)) [nM]	IC50 (ALK2 (aa 147-end); read-out: ALK2 100 μM IC50, 100 uM ATP) [nM]	IC50 (FGFR1) [nM]	IC50 (FGFR1 (UP)) [nM]	IC50 (FGFR2) [nM]	inhibition of ALK2 mutant DIPG cell viability (ALK2 mutant DIPG cell)
Cn1cc(-c2n[nH]c3cnc(N4C5CCC4c4cn[nH]c4C5)nc23)cn1 (stereo not shown) [Example 45, 9-(3-(1-Methyl-1H-pyrazol-4-yl)-1H-pyrazolo[4,3-d]pyrimidin-5-yl)-1,4,5,6,7,8-hexahydro-4,7-epiminocyclohepta[c]pyrazole]	500 to 2000	100 to 500	< 100	100 to 500	< 100	< 100	500 to 2000	500 to 2000	< 100	–	–	–	–	–
CN1CC2CCC(C1=O)N2c1ncc2[nH]nc(-c3cnn(C)c3)c2n1 (stereo not shown) [Example 49, 3-Methyl-8-(3-(1-methyl-1H-pyrazol-4-yl)-1H-pyrazolo[4,3-d]pyrimidin-5-yl)-3,8-diazabicyclo[3.2.1]octan-2-one]	500 to 2000	100 to 500	< 100	< 100	< 100	< 100	500 to 2000	–	< 100	> 2000	–	–	–	–
CCN1CC2CCC(C1=O)N2c1ncc2[nH]nc(-c3cnn(C)c3)c2n1 (stereo not shown) [Example 50, 3-Ethyl-8-(3-(1-methyl-1H-pyrazol-4-yl)-1H-pyrazolo[4,3-d]pyrimidin-5-yl)-3,8-diazabicyclo[3.2.1]octan-2-one]	–	100 to 500	< 100	100 to 500	–	–	–	–	< 100	–	100 to 500	100 to 500	–	–
CC(C)N1CC2CCC(C1=O)N2c1ncc2[nH]nc(-c3cnn(C)c3)c2n1 (stereo not shown) [Example 52, 3-Isopropyl-8-(3-(1-methyl-1H-pyrazol-4-yl)-1H-pyrazolo[4,3-d]pyrimidin-5-yl)-3,8-diazabicyclo[3.2.1]octan-2-one]	–	100 to 500	< 100	100 to 500	–	–	–	–	< 100	–	100 to 500	100 to 500	–	–
Cc1cc(-n2cc(-c3n[nH]c4cnc(N5C6CCC5C(=O)N(C)C6)nc34)cn2)ccc1C#N (stereo not shown) [Example 76, 2-Methyl-4-(4-(5-(3-methyl-2-oxo-3,8-diazabicyclo[3.2.1]octan-8-yl)-1H-pyrazolo[4,3-d]pyrimidin-3-yl)-1H-pyrazol-1-yl)benzonitrile]	–	< 100	< 100	< 100	< 100	< 100	500 to 2000	500 to 2000	< 100	–	–	–	< 100	–
c1ccc2c(-c3cnn4cc(-c5ccc(N6CCNCC6)cc5)cnc34)ccnc2c1 [LDN-19318917]	–	–	–	–	–	–	–	–	–	–	–	–	–	significant inhibition
